Laboratory results as given in US20120196927A1, “PROPHYLACTIC AND/OR THERAPEUTIC AGENT FOR METABOLIC SYNDROME” (priority 2009, published 2012).

Tests used:
Type in all cases: in vivo, mouse
C57BL/6J-ob/ob mice [1] = details: p.o. daily 5 weeks, nobiletin 200 mg/kg/day (No200), Pioglitazone 30 mg/kg/day (P30)
Source text: Diabetes model mice and the experimental system were as follows. As the diabetes model mice, 7 week age of male C57BL/6J-ob/ob (hereinafter, it was referred to as “ob/ob”) were purchased from Charles River Laboratories Japan Inc., and used as 10 mice/group.
For the negative control group (from FIGS. 5 to 10, it was shown as Vehicle; hereinafter, it is referred to as “solvent administration group”), 0.3% of CMC aqueous solution was administrated orally for 5 weeks in everyday at the dosage of 0.01 mL/g body weight. For the positive control group (in FIGS. 5 to 10 and hereinafter, it was referred to as “P30 administrated group”), 3 mg of Pioglitazone was suspended in 0.3% CMC aqueous solution so as to be orally administrated at the dosage of 0.01 mL/g body weight for 5 weeks in everyday (dosage: 30 mg/kg body weight/day).
For the sample ingestion group (in FIGS. 5 to 10 and hereinafter, it is referred to as “No200 ingestion group”), 20 mg of nobiletin purified as mentioned above (1) was suspended in 0.3% of carboxymethylcellulose (CMC) aqueous solution so as to be orally administrated at the dose of 0.01 mL/g body weight for 5 weeks in everyday (the dose: 200 mg/kg/day).
The body weight of mice, ingestion amount, weight of the white adipose tissue and liver weight of each mice were measured as the same as described in the example 3.

C57BL/6J-ob/ob mice [2] = experiment: Diabetes model mice: oral glucose tolerance test (OGTT); details: nobiletin 200 mg/kg/day, Pioglitazone 30 mg/kg/day
Protocol: The oral glucose tolerance test (OGTT) for the diabetes model mice (ob/ob) to which the nobiletin and others were administrated was subjected to the glucose tolerance test for studying the effects.
From 4 weeks after the start of the administration, the mice in each group were fasted for 16 hours, and then they were administrated 2 g/kg body weight of glucose per os. After the administration of glucose, […] of blood was collected from the tail vein at the time point of 0, 30, 60 and 120 minutes. Collected blood was centrifuged at 4° C., 3,000×g, for 15 minute to obtain plasma (n=10). The blood glucose level was measured as the same as that described in the example 1.

[3] = test system: GLUT4, Adiponectin, TNF-α, MCP-1, IL-6, PPARγ, aP2, LPL, Perilipin genes; experiment: Diabetes model mice: mRNA expression in the white adipose tissue (real time RT-PCR); details: ob/ob mice, Vehicle = 1.00, nobiletin 200 mg/kg/day, Pioglitazone 30 mg/kg/day, 5 weeks
Protocol: The effects by nobiletin ingestion to the mRNA expression in the white adipose tissue and the liver were measured (n=10).
After the termination of the administration period for 5 weeks, mRNA expression levels of respective genes shown in the table 10 were determined by using real time RT-PCR method. The real time RT-PCR was carried out according to an operation manual provided by ISOGEN (NIPPON GENE CO., LTD); RNA was extracted from the white adipose tissue and the liver. Next, cDNA was prepared from using 1 μg of RNA by using Reverse Transcription System kit (Promega Corp., USA). Next, suitable primers for the above-mentioned genes were prepared according to the operation manual provided by FastStart universal SYBR (a registered trademark) Greenmaster PCR KIT agent (Roche Diagnostics K. K., Germany).
Real time PCR system 7700HT (Applied Biosytems, USA) was used for the determination to carry out the real time PCR by using the cDNAs as templates. Each reaction conditions were set according to the manual of the PCR KIT. Quantitative analysis of the RNA amount was carried out based on comparative Ct method by using glyceraldehyde 3-phosphate dehydrogenase (GAPDH) as the standard reference.

male C57BL/6 mice = experiment: Nobiletin, obesity-induced mice: body weight and ingestion amount; details: for Body weight: HFD obesity-induced mice; for Ingestion amount, [Final Average]: average of 5 weeks; for Body weight, [Final gain]: gained amount during 0 to +5 weeks; for Ingestion amount: per mouse in 24 hrs
Source text: Six weeks age of male C57BL/6 mice were preliminary reared for 1 week (−9 to −8 week); then classified into 4 groups (n=9 in each group). LFD was given to one group and HFD was given to other 3 groups for 8 weeks (−8 to +5 week). From 8 weeks (15 week age) to 13 weeks, each group was given the following agents per os for 5 weeks in everyday. In below, the LFD administration group was defined that they ingested LFD; the HFD administration group is defined that they ingested the HFD without nobiletin. The compositions of the LFD and HFD are the same as those used in the Example 3.
To both of the LFD administration group and the HFD administration group, 0.3% CMC aqueous solution was given at the amount of 0.01 mL/g body weight. […] The group to which nobiletin was given at the amount of 10 mg/kg/day was referred to as “No10 administration group; the abbreviated as HFD+No 10” and another group to which nobiletin was given at the amount of 100 mg/kg/day was referred to as “No 100 administration group; abbreviated as HFD+No 100”. The schedule of the feed ingestion and administration of the agent for the above-mentioned 4 groups were schematically shown in FIG. 12A.
In the table, [Final gain] means gained amount during 0 to +5 weeks. […] By this, it was shown that nobiletin has the effect to suppress the body weight gain after the obesity induction by ingesting the high fat diet.
The ingestion amount of each mouse was measured everyday from 1 to 8 day (0 week) in the beginning of the agent administration. The ingested amount in 24 hrs was measured per cage, and then the average ingestion amount (g) per mouse was calculated. The date of day 0 means that of the previous day of the administration beginning. After 2 weeks from the administration, it was measured twice a week. [Final average] means the average of 5 weeks.

[4] = test system: adipose cells of the white adipose tissue; experiment: Nobiletin, obesity-induced mice: size of the adipose cells; details: epididymis adipose tissue sections
Source text: After the completion of the experiment, the adipose tissue of mice epididymis was excised to prepare sections to stain by using both of hematoxylin and eosin (n=9). These sections were observes under the microscope with 200-fold magnification to compare cell seizes in the field of photomicroscope vision.

[5] = nobiletin 10 mg/kg/day p.o. 5 weeks
[6] = nobiletin 100 mg/kg/day p.o. 5 weeks
[7] = nobiletin 10 mg/kg/day p.o., HFD
[8] = nobiletin 100 mg/kg/day p.o., HFD

## COc1ccc(-c2cc(=O)c3c(OC)c(OC)c(OC)c(OC)c3o2)cc1OC [nobiletin]
C57BL/6J-ob/ob mice [1]
  Gained body weight: 9.33 ± 0.49 g
  white adipose tissue: 5.69 ± 0.17 g
C57BL/6J-ob/ob mice [2]; 0 min after 2 g/kg glucose p.o.
  Blood glucose level (OGTT): 145.26 ± 7.56 mg/dL
C57BL/6J-ob/ob mice [2]; 30 min after 2 g/kg glucose p.o.
  Blood glucose level (OGTT): 304.41 ± 20.23 mg/dL
C57BL/6J-ob/ob mice [2]; 60 min after 2 g/kg glucose p.o.
  Blood glucose level (OGTT): 207.47 ± 11.56 mg/dL
C57BL/6J-ob/ob mice [2]; 120 min after 2 g/kg glucose p.o.
  Blood glucose level (OGTT): 192.57 ± 9.01 mg/dL
[3]
  Gene expression level (ratio), [W]Adiponectin: 1.54 ± 0.04
  Gene expression level (ratio), [W]GLUT4: 1.88 ± 0.12
  Gene expression level (ratio), [W]IL-6: 0.55 ± 0.03
  Gene expression level (ratio), [W]LPL: 1.50 ± 0.18
  Gene expression level (ratio), [W]MCP-1: 0.64 ± 0.02
  Gene expression level (ratio), [W]PPARγ: 1.79 ± 0.02
  Gene expression level (ratio), [W]Perilipin: 1.61 ± 0.17
  Gene expression level (ratio), [W]TNF-α: 0.80 ± 0.048
  Gene expression level (ratio), [W]aP2: 1.10 ± 0.01
Male C57BL/6 mice; [5]
  Body weight: 33.14 ± 1.02 g
Male C57BL/6 mice; nobiletin 10 mg/kg/day p.o., 0 weeks after administration
  Body weight: 31.07 ± 0.78 g
Male C57BL/6 mice; nobiletin 10 mg/kg/day p.o., 1 week
  Body weight: 31.10 ± 0.72 g
Male C57BL/6 mice; nobiletin 10 mg/kg/day p.o., 2 weeks
  Body weight: 32.10 ± 0.85 g
Male C57BL/6 mice; nobiletin 10 mg/kg/day p.o., 3 weeks
  Body weight: 33.01 ± 1.01 g
Male C57BL/6 mice; nobiletin 10 mg/kg/day p.o., 4 weeks
  Body weight: 32.58 ± 0.97 g
Male C57BL/6 mice; [6]
  Body weight: 31.88 ± 0.68 g
Male C57BL/6 mice; nobiletin 100 mg/kg/day p.o., 0 weeks after administration
  Body weight: 31.21 ± 0.60 g
Male C57BL/6 mice; nobiletin 100 mg/kg/day p.o., 1 week
  Body weight: 29.93 ± 0.52 g
Male C57BL/6 mice; nobiletin 100 mg/kg/day p.o., 2 weeks
  Body weight: 30.61 ± 0.60 g
Male C57BL/6 mice; nobiletin 100 mg/kg/day p.o., 3 weeks
  Body weight: 31.62 ± 0.62 g
Male C57BL/6 mice; nobiletin 100 mg/kg/day p.o., 4 weeks
  Body weight: 31.28 ± 0.59 g
Male C57BL/6 mice; [7]
  Ingestion amount, [Final Average]: 2.58 ± 0.1 g
  Body weight, [Final gain]: 2.08 ± 0.69 g
Male C57BL/6 mice; [8]
  Ingestion amount, [Final Average]: 2.61 ± 0.08 g
  Body weight, [Final gain]: 0.67 ± 0.37 g
Male C57BL/6 mice; day 0 (previous day of administration beginning), nobiletin 10 mg/kg/day group
  Ingestion amount: 2.36 ± 0.04 g
Male C57BL/6 mice; day 0 (previous day of administration beginning), nobiletin 100 mg/kg/day group
  Ingestion amount: 2.36 ± 0.04 g
Male C57BL/6 mice; day 1, nobiletin 10 mg/kg/day p.o., HFD
  Ingestion amount: 2.28 ± 0.13 g
Male C57BL/6 mice; day 1, nobiletin 100 mg/kg/day p.o., HFD
  Ingestion amount: 1.57 ± 0.09 g
Male C57BL/6 mice; day 2, nobiletin 10 mg/kg/day p.o., HFD
  Ingestion amount: 1.85 ± 0.19 g
Male C57BL/6 mice; day 2, nobiletin 100 mg/kg/day p.o., HFD
  Ingestion amount: 1.71 ± 0.13 g
Male C57BL/6 mice; day 3, nobiletin 10 mg/kg/day p.o., HFD
  Ingestion amount: 1.85 ± 0.19 g
Male C57BL/6 mice; day 3, nobiletin 100 mg/kg/day p.o., HFD
  Ingestion amount: 1.71 ± 0.13 g
Male C57BL/6 mice; day 4, nobiletin 10 mg/kg/day p.o., HFD
  Ingestion amount: 2.27 ± 0.28 g
Male C57BL/6 mice; day 4, nobiletin 100 mg/kg/day p.o., HFD
  Ingestion amount: 1.83 ± 0.15 g
Male C57BL/6 mice; day 5, nobiletin 10 mg/kg/day p.o., HFD
  Ingestion amount: 1.78 ± 0.21 g
Male C57BL/6 mice; day 5, nobiletin 100 mg/kg/day p.o., HFD
  Ingestion amount: 1.59 ± 0.20 g
Male C57BL/6 mice; day 6, nobiletin 10 mg/kg/day p.o., HFD
  Ingestion amount: 2.36 ± 0.14 g
Male C57BL/6 mice; day 6, nobiletin 100 mg/kg/day p.o., HFD
  Ingestion amount: 2.04 ± 0.09 g
Male C57BL/6 mice; day 7, nobiletin 10 mg/kg/day p.o., HFD
  Ingestion amount: 2.99 ± 0.07 g
Male C57BL/6 mice; day 7, nobiletin 100 mg/kg/day p.o., HFD
  Ingestion amount: 2.62 ± 0.12 g
Male C57BL/6 mice; day 8, nobiletin 10 mg/kg/day p.o., HFD
  Ingestion amount: 2.12 ± 0.32 g
Male C57BL/6 mice; day 8, nobiletin 100 mg/kg/day p.o., HFD
  Ingestion amount: 2.43 ± 0.03 g
[4]; [5]
  adipose cell size compared with HFD group: not large difference
[4]; [6]
  adipose cell size compared with HFD group: became smaller
